Assay results reported in patent US20240381872A1, “SUBSTITUTED 2,3-DIHYDRO[1,3]THIAZOLO[4,5-B]PYRIDINES, SALTS THEREOF AND THEIR USE AS HERBICIDALLY ACTIVE SUBSTANCES” (BAYER AKTIENGESELLSCHAFT, priority 2021, published 2024).

Columns and labels:
Type in all cases: in vivo
[1] = system: Echinochloa crus-galli (ECHCG); assay: Herbicidal pre-emergence action, section A (Table A3); conditions: application rate 320 g/ha; visual grading after ca. 3 weeks vs untreated controls
Procedure, shortened: (§1)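 Double sowings in sandy loam; soil-surface spray of WP/EC aqueous preparations, 0.5% additive, 600 l/ha water. Greenhouse, optimum conditions. Visual % damage at ~3 wk vs untreated (100% = dead, 0% = control-like).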

[2] = system: Lolium rigidum (LOLRI); assay: Herbicidal pre-emergence action, section A (Table A5); conditions: application rate 320 g/ha; visual grading after ca. 3 weeks vs untreated controls
Procedure, shortened: as §1

[3] = system: Poa annua (POAAN); assay: Herbicidal pre-emergence action, section A (Table A7); conditions: application rate 320 g/ha; visual grading after ca. 3 weeks vs untreated controls
Procedure, shortened: as §1

[4] = system: Digitaria sanguinalis (DIGSA); assay: Herbicidal pre-emergence action, section A (Table A12); conditions: application rate 320 g/ha
Procedure, shortened: as §1

[5] = system: Lolium rigidum (LOLRI); assay: Herbicidal post-emergence action, section B (Table B5); conditions: visual rating about 3 weeks after treatment vs untreated controls
Procedure, shortened: (§2)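 Weeds were sown in sandy loam and grown in a greenhouse, then sprayed at the one-leaf stage 2 to 3 weeks after sowing. Compounds, formulated as WP or EC, went on as aqueous suspension or emulsion with 0.5% additive at 600 liters per hectare. Visual rating after about 3 weeks against untreated controls (100% = plants dead, 0% = like controls).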

[6] = system: Poa annua (POAAN); assay: Herbicidal post-emergence action, section B (Table B7); conditions: application rate 320 g/ha; visual rating about 3 weeks after treatment vs untreated controls
Procedure, shortened: as §2

[7] = system: Triticum aestivum (TRZAS); assay: Pre-emergence effects on crop plants, section D (Table D2); conditions: application rate 80 g/ha; visual grading after ca. 3 weeks
Procedure, shortened: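 Formulated compound (wettable powder or emulsifiable concentrate) was applied pre-emergence to the soil surface at 320 g/ha or lower. Greenhouse-grown plants were rated visually for percent damage after ca. 3 weeks.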

[8] = system: Abutilon theophrasti (ABUTH); assay: Herbicidal post-emergence action, section E (Table E1); conditions: assessed visually after ca. 3 weeks
Excerpt: Seeds of mono- and dicotyledonous weed plants and crop plants were sown, in plastic or organic planting pots, in sandy loam, covered with soil and grown in a greenhouse under controlled growth conditions. 2 to 3 weeks after sowing, the test plants were sprayed in the single-leaf stage. The compounds according to the invention, formulated in form of wettable powders (WP) or as emulsifiable concentrates (EC), were sprayed onto the green plant parts as aqueous suspension or emulsion, with the addition of 0.5% of an additive, at an application rate of 600 l of water/ha (converted). The test plants were placed in the greenhouse for ca. 3 weeks under optimum growth conditions, and then the effect of the preparations was assessed visually in comparison with untreated controls (herbicidal effect in percent (%): 100% effect=plants have died off, 0% effect=as control plants).

[9] = system: Polygonum convolvulus (POLCO); assay: Herbicidal post-emergence action, section E (Table E7); conditions: application rate 320 g/ha, visual assessment ca. 3 weeks after spraying
Procedure, shortened: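 Effect was rated visually as percent damage relative to untreated plants (100% = died off) about 3 weeks after treatment. Single-leaf-stage plants, 2 to 3 weeks old and grown in sandy loam under glass, had received WP or EC formulations sprayed in water with 0.5% additive at 600 l/ha.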

[10] = system: Zea mays (ZEAMX); assay: Post-emergence effects on crop plants, section F (Table F1); conditions: crop plant damage
Procedure, shortened: (§3)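 Percent damage was rated by eye roughly 3 weeks after treatment against untreated plants, where 0% = as control and 100% = died off. Spraying used WP or EC formulations plus 0.5% additive at 600 l water/ha, with rates of 320 g/ha or less. Plants were at the single-leaf stage, sown 2-3 weeks earlier in sandy loam under greenhouse conditions.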

[11] = system: Triticum aestivum (TRZAS); assay: Post-emergence effects on crop plants, section F (Table F2); conditions: crop plant damage
Procedure, shortened: as §3

| Compound | pre-emergence activity against ECHCG in % [1] [%] | pre-emergence activity against LOLRI in % [2] [%] | pre-emergence activity against POAAN in % [3] [%] | pre-emergence activity against DIGSA in % [4] [%] | post-emergence activity against LOLRI in % ([5]; application rate 1280 g/ha) [%] | post-emergence activity against POAAN in % [6] [%] | pre-emergence activity against TRZAS in % (crop plant damage) [7] [%] | post-emergence activity against ABUTH in % ([8]; application rate 320 g/ha) [%] | post-emergence activity against POLCO in % [9] [%] | post-emergence activity against ZEAMX in % ([10]; application rate 320 g/ha) [%] | post-emergence activity against TRZAS in % ([11]; application rate 320 g/ha) [%] | post-emergence activity against LOLRI in % ([5]; application rate 320 g/ha) [%] | post-emergence activity against ABUTH in % ([8]; application rate 80 g/ha) [%] | post-emergence activity against ZEAMX in % ([10]; application rate 80 g/ha) [%] | post-emergence activity against TRZAS in % ([11]; application rate 80 g/ha) [%] |
| --- | --- | --- | --- | --- | --- | --- | --- | --- | --- | --- | --- | --- | --- | --- | --- |
| Cc1cc2c(nc1-c1ccccc1)N(C(=O)C1(C)CC(Cl)=NO1)CS2 (stereo not drawn) [Example I-088] | 100 | 100 | 100 | 100 | 90 | 90 | 0 | 90 | 90 | 0 | 20 |  |  |  |  |
| Cc1cc2c(nc1-c1ccccc1F)N(C(=O)C13CCCC1C(Cl)=NO3)CS2 (stereo not drawn) [Example I-104] | 100 | 100 | 100 | 100 |  | 90 | 0 |  | 90 |  |  | 90 | 80 | 20 | 0 |
| Cc1cc2c(nc1-c1ccccc1F)N(S(=O)(=O)Cc1ccc(F)cc1)CS2 [Example I-122] | 100 | 100 | 100 | 100 | 90 | 90 | 10 | 80 | 90 | 0 |  |  |  |  | 20 |
